We go through 33 molecules from patent publication US20230123334A1, “AMINO LIPID COMPOUND, PREPARATION METHOD THEREFOR, AND APPLICATION THEREOF” (SHENZHEN SHENXIN BIOTECHNOLOGY CO., LTD., priority 2020, published 2023).

Experiment [1] relates to Hela cells. Kind of experiment: Transfection of Hela cell line, mRNA vectors. It counts as cell-based. To be noted: 50 ng EGFP mRNA per well. The method, then: (§1) Cell line: Hela cells (ATCC 35241)
(§2) Medium: DMEM supplemented with 10% fetal bovine serum (Invitrogen)
(§3) Screening: cell transfection on 96-well plates
Detection (readout): percentage of the number of GFP fluorescent cells relative to the total number of cells (the total number of cells was determined using nucleus dye Hoechst). A commercially available liposome transfection reagent Lipofectamine2000 (Invitrogen) was used as the positive control group, according to the manufacturer's instructions.
Method: the experimental method was basically the same with Example 4, and the mass of EGFP mRNA for transfection was 50 ng per well.

Experiment [2] has as its system Hela cells. The experiment is described as follows: Transfection of Hela cell line, DNA vectors. In kind it is cell-based. To be noted: 75 ng plasmid DNA, GFP cells / total cells. The method, then:
1. The compound (0.01 mmol) prepared in Example 1 was dissolved in 1 mL of anhydrous ethanol. After ultrasonically dissolved, 10 μL of the resultant amino lipid solution in ethanol was taken and mixed with 5 μL of DOPE solution in ethanol (0.01 m), and then to the obtained mixture was added 35 μL of 0.2M sodium acetate buffer (pH 5.6), and 50 μL of liposome solution was prepared by vortex at a constant rotating speed for 30 s. 4 μL was taken from the 50 μL liposome solution and added to 46 μL of 0.02M sodium acetate buffer (pH 5.6), and the final liposome solution was formed by vortex at a constant rotating speed for 30 s. 5 μL was taken from the final liposome solution and mixed with 75 ng plasmid DNA (psin-EGFP-IRES-Puro, Clontech) dissolved in 5 μL of 0.02 M sodium acetate buffer, and was allowed to stay at room temperature for 30 min to form a lipid/DNA transfection complex.
2. 10 μL of the lipid/DNA transfection complex was incubated at room temperature for 30 min, followed by addition of 90 μL of fresh resuspended cells (3-5×10^4 cells) and mixing with a pipette. 100 μL of cells+lipid/DNA complex was transferred to separate wells of a 96-well culture plate immediately, and placed in an incubator containing 5% CO2 at 37° C.
3. Hoechst33258 (Invitrogen) was added at a final concentration of 0.2 μg/mL to the cells 20 to 24 hours after initial cell transfection, and cultured in darkness at 37° C. for 15 min. Afterwards, the cells were washed once with a PBS solution, and then added with medium for culture for 20 to 24 h.
4. The cells were placed in a high-throughput confocal microscope (Molecular Devices ImageXpress), and four visual fields of the image of the cells were captured for each well, and images at three laser wavelengths were captured for each sample: bright field images of cells (FIG. 2(a) and FIG. 2(b)), Hoechst-staining images showing total nuclei (FIG. 2(c) and FIG. 2(d)) and GFP images showing success in transfection with the plasmid DNA and the expression of GFP (FIG. 2(e) and FIG. 2(f)). MetaXpress software was used to separately count the cells in the Hoechst-staining images and GFP images, and then the number of cells expressing GFP was divided by the total number of nuclei to give the absolute cell transfection efficiency. The absolute transfection efficiency was calculated as follows: […]
as §1, §2, §3
Detection (readout): percentage of the number of GFP fluorescent cells relative to the total number of cells (the total number of cells was determined using nucleus dye Hoechst). Lipofectamine2000 (Invitrogen) was used as the positive control, according to the manufacturer's instructions.
Method: the experimental method was basically the same with Example 4.

Take `CCCCCCCCCCCCCNc1nc(NCCN(CC)CC)nc(SCCCCCCCC)n1` [Compound S8N13D7]: in the experiment with Hela cells [1], the “Absolute mRNA transfection efficiency in Hela cells” value was found to be 4.5%. The “Absolute DNA transfection efficiency in Hela cells” value with Hela cells [2] was 4.5%.
Consider `CCCCCCCCCCCSc1nc(NCCN(C)C)nc(SCCCCCCCC)n1` [Compound S8S11D1], for which the “Absolute mRNA transfection efficiency in Hela cells” value in the experiment on Hela cells [1] turned out to be 4.9%. Also, the “Absolute DNA transfection efficiency in Hela cells” value with Hela cells [2] amounted to 4.59%.
For `CCCCCCCCCCCSc1nc(NCCN2CCOCC2)nc(SCCCCCCCC)n1` [Compound S8S11D2], in that order: 8.6% and 8.9%.
Regarding `CCCCCCCCCCCSc1nc(NCCN2CCCCC2)nc(SCCCCCCCC)n1` [Compound S8S11D4], the “Absolute mRNA transfection efficiency in Hela cells” value with Hela cells [1] is listed as 4.5%. In the experiment on Hela cells [2], the “Absolute DNA transfection efficiency in Hela cells” value is 4.5%.
As to `CCCCCCCCCCCSc1nc(NCCN(CC)CC)nc(SCCCCCCCC)n1` [Compound S8S11D7], in the experiment on Hela cells [1], the “Absolute mRNA transfection efficiency in Hela cells” value came out at 5.7%. Moreover, in the experiment on Hela cells [2], the “Absolute DNA transfection efficiency in Hela cells” value was found to be 5.7%.
For `CCCCCCCCCCCCSc1nc(NCCN(C)C)nc(SCCCCCCCC)n1` [Compound S8S12D1], the “Absolute mRNA transfection efficiency in Hela cells” value with Hela cells [1] was determined as 5.4%. Moreover, the “Absolute DNA transfection efficiency in Hela cells” value with Hela cells [2] is listed as 5.4%.
As to `CCCCCCCCCCCCSc1nc(NCCN2CCOCC2)nc(SCCCCCCCC)n1` [Compound S8S12D2], in the experiment on Hela cells [1], the “Absolute mRNA transfection efficiency in Hela cells” value is reported as 8.7%. Besides, the “Absolute DNA transfection efficiency in Hela cells” value in the experiment on Hela cells [2] stood at 8.7%.
`CCCCCCCCCCCCSc1nc(NCCN2CCCCC2)nc(SCCCCCCCC)n1` [Compound S8S12D4]: the “Absolute mRNA transfection efficiency in Hela cells” value in the experiment on Hela cells [1] stood at 5.4%. Also, the “Absolute DNA transfection efficiency in Hela cells” value in the experiment on Hela cells [2] came to 5.4%.
`CCCCCCCCCCCCSc1nc(NCCN(CC)CC)nc(SCCCCCCCC)n1` [Compound S8S12D7]: the “Absolute mRNA transfection efficiency in Hela cells” value with Hela cells [1] was determined as 4.6%. Further, the “Absolute DNA transfection efficiency in Hela cells” value with Hela cells [2] is on record as 4.6%.
With `CCCCCCCCCNc1nc(NCCN(C)C)nc(SCCCCCCCCC)n1` [Compound S9N9D1], the “Absolute mRNA transfection efficiency in Hela cells” value with Hela cells [1] is 17.7%. For the same molecule, the “Absolute DNA transfection efficiency in Hela cells” value in the experiment with Hela cells [2] turned out to be 17.7%.
With `CCCCCCCCCNc1nc(NCCN2CCOCC2)nc(SCCCCCCCCC)n1` [Compound S9N9D2], the “Absolute mRNA transfection efficiency in Hela cells” value with Hela cells [1] came out at 12.0%. Further, in the experiment with Hela cells [2], the “Absolute DNA transfection efficiency in Hela cells” value worked out at 12.0%.
For the molecule `CCCCCCCCCNc1nc(NCCN2CCCCC2)nc(SCCCCCCCCC)n1` [Compound S9N9D4], the “Absolute mRNA transfection efficiency in Hela cells” value with Hela cells [1] came out at 8.9%. Moreover, the “Absolute DNA transfection efficiency in Hela cells” value in the experiment with Hela cells [2] is listed as 8.9%.
Regarding `CCCCCCCCCNc1nc(NCCN(CC)CC)nc(SCCCCCCCCC)n1` [Compound S9N9D7], the “Absolute mRNA transfection efficiency in Hela cells” value in the experiment with Hela cells [1] was 24.8%. The “Absolute DNA transfection efficiency in Hela cells” value in the experiment with Hela cells [2] was determined as 24.8%.
As for `CCCCCCCCCCCNc1nc(NCCN(C)C)nc(SCCCCCCCCC)n1` [Compound S9N11D1], in the experiment on Hela cells [1], the “Absolute mRNA transfection efficiency in Hela cells” value is 17.7%. Further, in the experiment on Hela cells [2], the “Absolute DNA transfection efficiency in Hela cells” value turned out to be 17.7%.
For `CCCCCCCCCCCNc1nc(NCCN2CCOCC2)nc(SCCCCCCCCC)n1` [Compound S9N11D2], the “Absolute mRNA transfection efficiency in Hela cells” value in the experiment on Hela cells [1] is 8.2%. Moreover, in the experiment on Hela cells [2], the “Absolute DNA transfection efficiency in Hela cells” value stood at 8.2%.
As to `CCCCCCCCCCCNc1nc(NCCN2CCCCC2)nc(SCCCCCCCCC)n1` [Compound S9N11D4], the “Absolute mRNA transfection efficiency in Hela cells” value with Hela cells [1] is on record as 4.4%. For the same molecule, the “Absolute DNA transfection efficiency in Hela cells” value with Hela cells [2] came to 4.4%.
For `CCCCCCCCCCCNc1nc(NCCN(CC)CC)nc(SCCCCCCCCC)n1` [Compound S9N11D7], the “Absolute mRNA transfection efficiency in Hela cells” value in the experiment on Hela cells [1] came to 7.8%. For the same molecule, in the experiment on Hela cells [2], the “Absolute DNA transfection efficiency in Hela cells” value amounted to 7.8%.
Take `CCCCCCCCCCCCNc1nc(NCCN(C)C)nc(SCCCCCCCCC)n1` [Compound S9N12D1]: in the experiment on Hela cells [1], the “Absolute mRNA transfection efficiency in Hela cells” value is given as 19.6%. The “Absolute DNA transfection efficiency in Hela cells” value with Hela cells [2] came to 19.7%.
Take `CCCCCCCCCCCCNc1nc(NCCN2CCOCC2)nc(SCCCCCCCCC)n1` [Compound S9N12D2]: in the experiment with Hela cells [1], the “Absolute mRNA transfection efficiency in Hela cells” value is 6.5%. In the experiment with Hela cells [2], the “Absolute DNA transfection efficiency in Hela cells” value was 6.5%.
Turning to `CCCCCCCCCCCCNc1nc(NCCN2CCCCC2)nc(SCCCCCCCCC)n1` [Compound S9N12D4], in the experiment with Hela cells [1], the “Absolute mRNA transfection efficiency in Hela cells” value was 4.1%. Further, the “Absolute DNA transfection efficiency in Hela cells” value with Hela cells [2] amounted to 4.1%.
Consider `CCCCCCCCCCCCNc1nc(NCCN(CC)CC)nc(SCCCCCCCCC)n1` [Compound S9N12D7], for which the “Absolute mRNA transfection efficiency in Hela cells” value in the experiment on Hela cells [1] came to 6.8%. Also, the “Absolute DNA transfection efficiency in Hela cells” value in the experiment on Hela cells [2] is listed as 6.8%.
Turning to `CCCCCCCCCCCSc1nc(NCCCCCCC)nc(NCCN(C)C)n1` [Compound S11N7D1], the “Absolute mRNA transfection efficiency in Hela cells” value with Hela cells [1] turned out to be 13.9%. Also, the “Absolute DNA transfection efficiency in Hela cells” value in the experiment on Hela cells [2] stood at 13.9%.
Take `CCCCCCCCCCCSc1nc(NCCCCCCC)nc(NCCN2CCOCC2)n1` [Compound S11N7D2]: the “Absolute mRNA transfection efficiency in Hela cells” value in the experiment on Hela cells [1] amounted to 5.8%. In the experiment on Hela cells [2], the “Absolute DNA transfection efficiency in Hela cells” value stood at 5.8%.
`CCCCCCCCCCCSc1nc(NCCCCCCC)nc(NCCN2CCCCC2)n1` [Compound S11N7D4]: the “Absolute mRNA transfection efficiency in Hela cells” value in the experiment on Hela cells [1] is 2.3%. Also, in the experiment on Hela cells [2], the “Absolute DNA transfection efficiency in Hela cells” value was determined as 2.3%.
`CCCCCCCCCCCSc1nc(NCCCCCCC)nc(NCCN(CC)CC)n1` [Compound S11N7D7]: the “Absolute mRNA transfection efficiency in Hela cells” value in the experiment with Hela cells [1] was 5.8%. The “Absolute DNA transfection efficiency in Hela cells” value in the experiment on Hela cells [2] is reported as 5.8%.
For the molecule `CCCCCCCCCCCSc1nc(NCCCCCCCC)nc(NCCN(C)C)n1` [Compound S11N8D1], the “Absolute mRNA transfection efficiency in Hela cells” value with Hela cells [1] was 9.9%. The “Absolute DNA transfection efficiency in Hela cells” value with Hela cells [2] worked out at 9.9%.
As to `CCCCCCCCCCCSc1nc(NCCCCCCCC)nc(NCCN2CCOCC2)n1` [Compound S11N8D2], the “Absolute mRNA transfection efficiency in Hela cells” value in the experiment on Hela cells [1] came to 9.3%. Besides, the “Absolute DNA transfection efficiency in Hela cells” value with Hela cells [2] amounted to 9.3%.
`CCCCCCCCCCCSc1nc(NCCCCCCCC)nc(NCCN2CCCCC2)n1` [Compound S11N8D4]: the “Absolute mRNA transfection efficiency in Hela cells” value in the experiment on Hela cells [1] turned out to be 2.9%. For the same molecule, the “Absolute DNA transfection efficiency in Hela cells” value in the experiment with Hela cells [2] was determined as 2.9%.
Consider `CCCCCCCCCCCSc1nc(NCCCCCCCC)nc(NCCN(CC)CC)n1` [Compound S11N8D7], for which the “Absolute mRNA transfection efficiency in Hela cells” value in the experiment with Hela cells [1] turned out to be 5.7%. Moreover, the “Absolute DNA transfection efficiency in Hela cells” value with Hela cells [2] stood at 5.7%.
Regarding `CCCCCCCCCCCSc1nc(NCCCCCCCCC)nc(NCCN(C)C)n1` [Compound S11N9D1], the “Absolute mRNA transfection efficiency in Hela cells” value in the experiment with Hela cells [1] is 6.0%. Also, the “Absolute DNA transfection efficiency in Hela cells” value in the experiment on Hela cells [2] is 6.0%.
With `CCCCCCCCCCCSc1nc(NCCCCCCCCC)nc(NCCN2CCOCC2)n1` [Compound S11N9D2], the “Absolute mRNA transfection efficiency in Hela cells” value in the experiment on Hela cells [1] is 6.8%. In addition, the “Absolute DNA transfection efficiency in Hela cells” value in the experiment on Hela cells [2] is reported as 6.8%.
Take `CCCCCCCCCCCSc1nc(NCCCCCCCCC)nc(NCCN2CCCCC2)n1` [Compound S11N9D4]: the “Absolute mRNA transfection efficiency in Hela cells” value with Hela cells [1] is 0.5%. For the same molecule, the “Absolute DNA transfection efficiency in Hela cells” value in the experiment with Hela cells [2] is listed as 0.5%.
`CCCCCCCCCCCSc1nc(NCCCCCCCCC)nc(NCCN(CC)CC)n1` [Compound S11N9D7]: the “Absolute mRNA transfection efficiency in Hela cells” value with Hela cells [1] worked out at 0.9%. For the same molecule, the “Absolute DNA transfection efficiency in Hela cells” value with Hela cells [2] was 0.9%.
